The source made the active and inactive calls. How the calls were made is not given here.
Tested on: CCRIS mutagenicity, Ames/micronucleus/aberration tests
Test: CCRIS mutagenicity studies
[1] = Test System: AMES SALMONELLA TYPHIMURIUM, Strain/Indicator: TA98, Metabolic Activation: NONE, Method: STANDARD PLATE
[2] = Test System: AMES SALMONELLA TYPHIMURIUM, Strain/Indicator: TA100, Metabolic Activation: NONE, Method: STANDARD PLATE

With `Cc1cc(Cl)ccc1O` the mutagenic call (Test System: AMES SALMONELLA TYPHIMURIUM, Strain/Indicator: TA97, Metabolic Activation: HAMSTER, LIVER, S-9, AROCLOR 1254 (10%), Method: PREINCUBATION) was “inactive; negative”, the mutagenic call (Test System: AMES SALMONELLA TYPHIMURIUM, Strain/Indicator: TA97, Metabolic Activation: HAMSTER, LIVER, S-9, AROCLOR 1254 (30%), Method: PREINCUBATION) was “inactive; negative” and the mutagenic call (Test System: AMES SALMONELLA TYPHIMURIUM, Strain/Indicator: TA97, Metabolic Activation: NONE, Method: PREINCUBATION) was “inactive; negative”. For the same compound, the mutagenic call (Test System: AMES SALMONELLA TYPHIMURIUM, Strain/Indicator: TA97, Metabolic Activation: NONE, Method: STANDARD PLATE) was “active; positive”, the mutagenic call (Test System: AMES SALMONELLA TYPHIMURIUM, Strain/Indicator: TA97, Metabolic Activation: RAT, LIVER, S-9, AROCLOR 1254 (10%), Method: PREINCUBATION) was “inactive; negative” and the mutagenic call (Test System: AMES SALMONELLA TYPHIMURIUM, Strain/Indicator: TA97, Metabolic Activation: RAT, LIVER, S-9, AROCLOR 1254 (30%), Method: PREINCUBATION) was “inactive; negative”. The mutagenic call (Test System: AMES SALMONELLA TYPHIMURIUM, Strain/Indicator: TA97, Metabolic Activation: RAT, LIVER, S-9, AROCLOR 1254, Method: STANDARD PLATE) was “active; positive”, the mutagenic call (Test System: AMES SALMONELLA TYPHIMURIUM, Strain/Indicator: TA98, Metabolic Activation: HAMSTER, LIVER, S-9, AROCLOR 1254 (10%), Method: PREINCUBATION) was “inactive; negative” and the mutagenic call (Test System: AMES SALMONELLA TYPHIMURIUM, Strain/Indicator: TA98, Metabolic Activation: HAMSTER, LIVER, S-9, AROCLOR 1254 (30%), Method: PREINCUBATION) was “inactive; negative”. The mutagenic call (Test System: AMES SALMONELLA TYPHIMURIUM, Strain/Indicator: TA98, Metabolic Activation: NONE, Method: PREINCUBATION) was “inactive; negative”, the mutagenic call [1] was “inactive; negative” and the mutagenic call (Test System: AMES SALMONELLA TYPHIMURIUM, Strain/Indicator: TA98, Metabolic Activation: RAT, LIVER, S-9, AROCLOR 1254 (10%), Method: PREINCUBATION) was “inactive; negative”. For the same compound, the mutagenic call (Test System: AMES SALMONELLA TYPHIMURIUM, Strain/Indicator: TA98, Metabolic Activation: RAT, LIVER, S-9, AROCLOR 1254 (30%), Method: PREINCUBATION) was “inactive; negative”, the mutagenic call (Test System: AMES SALMONELLA TYPHIMURIUM, Strain/Indicator: TA98, Metabolic Activation: RAT, LIVER, S-9, AROCLOR 1254, Method: STANDARD PLATE) was “active; positive” and the mutagenic call (Test System: AMES SALMONELLA TYPHIMURIUM, Strain/Indicator: TA100, Metabolic Activation: HAMSTER, LIVER, S-9, AROCLOR 1254 (10%), Method: PREINCUBATION) was “inactive; negative”. The mutagenic call (Test System: AMES SALMONELLA TYPHIMURIUM, Strain/Indicator: TA100, Metabolic Activation: HAMSTER, LIVER, S-9, AROCLOR 1254 (30%), Method: PREINCUBATION) was “inactive; negative”, the mutagenic call (Test System: AMES SALMONELLA TYPHIMURIUM, Strain/Indicator: TA100, Metabolic Activation: NONE, Method: PREINCUBATION) was “inactive; negative” and the mutagenic call [2] was “inactive; negative”. The mutagenic call (Test System: AMES SALMONELLA TYPHIMURIUM, Strain/Indicator: TA100, Metabolic Activation: RAT, LIVER, S-9, AROCLOR 1254 (10%), Method: PREINCUBATION) was “inactive; negative”, the mutagenic call (Test System: AMES SALMONELLA TYPHIMURIUM, Strain/Indicator: TA100, Metabolic Activation: RAT, LIVER, S-9, AROCLOR 1254 (30%), Method: PREINCUBATION) was “inactive; negative” and the mutagenic call (Test System: AMES SALMONELLA TYPHIMURIUM, Strain/Indicator: TA100, Metabolic Activation: RAT, LIVER, S-9, AROCLOR 1254, Method: STANDARD PLATE) was “active; positive”. The mutagenic call (Test System: AMES SALMONELLA TYPHIMURIUM, Strain/Indicator: TA104, Metabolic Activation: NONE, Method: STANDARD PLATE) was “inactive; negative”, the mutagenic call (Test System: AMES SALMONELLA TYPHIMURIUM, Strain/Indicator: TA104, Metabolic Activation: RAT, LIVER, S-9, AROCLOR 1254, Method: STANDARD PLATE) was “inactive; negative” and the mutagenic call (Test System: AMES SALMONELLA TYPHIMURIUM, Strain/Indicator: TA1535, Metabolic Activation: HAMSTER, LIVER, S-9, AROCLOR 1254 (10%), Method: PREINCUBATION) was “inactive; negative”. The mutagenic call (Test System: AMES SALMONELLA TYPHIMURIUM, Strain/Indicator: TA1535, Metabolic Activation: HAMSTER, LIVER, S-9, AROCLOR 1254 (30%), Method: PREINCUBATION) was “inactive; negative”, the mutagenic call (Test System: AMES SALMONELLA TYPHIMURIUM, Strain/Indicator: TA1535, Metabolic Activation: NONE, Method: PREINCUBATION) was “inactive; negative” and the mutagenic call (Test System: AMES SALMONELLA TYPHIMURIUM, Strain/Indicator: TA1535, Metabolic Activation: RAT, LIVER, S-9, AROCLOR 1254 (10%), Method: PREINCUBATION) was “inactive; negative”. The mutagenic call (Test System: AMES SALMONELLA TYPHIMURIUM, Strain/Indicator: TA1535, Metabolic Activation: RAT, LIVER, S-9, AROCLOR 1254 (30%), Method: PREINCUBATION) was “inactive; negative”, the mutagenic call (Test System: AMES SALMONELLA TYPHIMURIUM, Strain/Indicator: TA1537, Metabolic Activation: HAMSTER, LIVER, S-9, AROCLOR 1254 (30%), Method: PREINCUBATION) was “inactive; negative” and the mutagenic call (Test System: AMES SALMONELLA TYPHIMURIUM, Strain/Indicator: TA1537, Metabolic Activation: NONE, Method: PREINCUBATION) was “inactive; negative”. For the same compound, the mutagenic call (Test System: AMES SALMONELLA TYPHIMURIUM, Strain/Indicator: TA1537, Metabolic Activation: RAT, LIVER, S-9, AROCLOR 1254 (30%), Method: PREINCUBATION) was “inactive; negative”.

With `O=c1[nH]c(=O)n([C@H]2C[C@H](O)[C@@H](CO)O2)cc1Br` the mutagenic call [1] was “inactive; negative”, the mutagenic call (Test System: AMES SALMONELLA TYPHIMURIUM, Strain/Indicator: TA98, Metabolic Activation: S-9, Method: STANDARD PLATE) was “inactive; negative” and the mutagenic call [2] was “inactive; negative”. For the same compound, the mutagenic call (Test System: AMES SALMONELLA TYPHIMURIUM, Strain/Indicator: TA100, Metabolic Activation: S-9, Method: STANDARD PLATE) was “inactive; negative”, the mutagenic call (Test System: AMES SALMONELLA TYPHIMURIUM, Strain/Indicator: TA1537, Metabolic Activation: S-9, Method: STANDARD PLATE) was “inactive; negative” and the mutagenic call (Test System: CHINESE HAMSTER V-79, Strain/Indicator: V-79/6-THIOGUANINE, Metabolic Activation: NONE, Method: STANDARD PLATE) was “active; positive”. For the same compound, the mutagenic call (Test System: CHINESE HAMSTER V-79, Strain/Indicator: V-79/8-AZAGUANINE, Metabolic Activation: NONE, Method: STANDARD PLATE) was “active; positive”, the mutagenic call (Test System: E. COLI, Strain/Indicator: WP2 (HCR), Metabolic Activation: NONE, Method: STANDARD PLATE) was “inactive; negative” and the mutagenic call (Test System: E. COLI, Strain/Indicator: WP2 (HCR), Metabolic Activation: S-9, Method: STANDARD PLATE) was “inactive; negative”.

In the case of `CC1(C)COCN1`, the mutagenic call (End Point: In vitro chromosomal aberrations, Test System: Chinese hamster ovary (CHO) cells, Metabolic Activation: None) was “active; positive”, the mutagenic call (End Point: In vitro chromosomal aberrations, Test System: Chinese hamster ovary (CHO) cells, Metabolic Activation: S-9) was “active; positive” and the mutagenic call (Test System: Mouse lymphoma, Strain/Indicator: L5178Y (TK+/TK-), Metabolic Activation: None, Method: Not specified by DPR) was “active; positive (purity 78%)”. The mutagenic call (Test System: Mouse lymphoma, Strain/Indicator: L5178Y (TK+/TK-), Metabolic Activation: S-9, Method: Not specified by DPR) was “active; positive (purity 78%)”.

In the case of `O=C(O)CCSCCC(=O)O`, the mutagenic call (Test System: Ames Salmonella typhimurium, Strain/Indicator: TA98, Metabolic Activation: None, Method: Preincubation) was “inactive; negative”, the mutagenic call (Test System: Ames Salmonella typhimurium, Strain/Indicator: TA98, Metabolic Activation: Rat, Liver, S-9, Phenobarbital and 5,6-benzoflavone, Method: Preincubation) was “inactive; negative” and the mutagenic call (Test System: Ames Salmonella typhimurium, Strain/Indicator: TA100, Metabolic Activation: None, Method: Preincubation) was “inactive; negative”. For the same compound, the mutagenic call (Test System: Ames Salmonella typhimurium, Strain/Indicator: TA100, Metabolic Activation: Rat, Liver, S-9, Phenobarbital and 5,6-benzoflavone, Method: Preincubation) was “inactive; negative”, the mutagenic call (Test System: Ames Salmonella typhimurium, Strain/Indicator: TA1535, Metabolic Activation: None, Method: Preincubation) was “inactive; negative” and the mutagenic call (Test System: Ames Salmonella typhimurium, Strain/Indicator: TA1535, Metabolic Activation: Rat, Liver, S-9, Phenobarbital and 5,6-benzoflavone, Method: Preincubation) was “inactive; negative”. For the same compound, the mutagenic call (Test System: Ames Salmonella typhimurium, Strain/Indicator: TA1537, Metabolic Activation: None, Method: Preincubation) was “inactive; negative”, the mutagenic call (Test System: Ames Salmonella typhimurium, Strain/Indicator: TA1537, Metabolic Activation: Rat, Liver, S-9, Phenobarbital and 5,6-benzoflavone, Method: Preincubation) was “inactive; negative” and the mutagenic call (Test System: E. coli, Strain/Indicator: WP2uvrA/pKM101, Metabolic Activation: None, Method: Preincubation) was “inactive; negative”. For the same compound, the mutagenic call (Test System: E. coli, Strain/Indicator: WP2uvrA/pKM101, Metabolic Activation: Rat, Liver, S-9, Phenobarbital and 5,6-benzoflavone, Method: Preincubation) was “inactive; negative”.
